According to ChEMBL document CHEMBL2203015, “Synthesis and biological evaluation of 5-aryloxypyrazole derivatives bearing a rhodanine-3-aromatic acid as potential antimicrobial agents” (Bioorg Med Chem Lett, 2012):
Converted amounts (≈) assume the structure as drawn.

Assays:
Type in all cases: functional
Staphylococcus aureus [1] = experiment: Antibacterial activity against Staphylococcus aureus KCTC 503 incubated for 24 hrs serial dilution method; conditions: KCTC 503, 24 h
Escherichia coli = experiment: Antibacterial activity against Escherichia coli 1356 incubated for 24 hrs serial dilution method; conditions: Escherichia coli, 1356, 24 h
Staphylococcus aureus [2] = experiment: Antibacterial activity against multidrug-resistant Staphylococcus aureus CCARM 3506 incubated for 24 hrs serial dilution method; conditions: CCARM 3506, 24 h
Staphylococcus aureus [3] = experiment: Antibacterial activity against quinolone-resistant Staphylococcus aureus CCARM 3519 incubated for 24 hrs serial dilution method; conditions: CCARM 3519, 24 h
Staphylococcus aureus [4] = experiment: Antibacterial activity against Staphylococcus aureus KCTC 209 incubated for 24 hrs serial dilution method; conditions: KCTC 209, 24 h
Staphylococcus aureus [5] = experiment: Antibacterial activity against quinolone-resistant Staphylococcus aureus CCARM 3505 incubated for 24 hrs serial dilution method; conditions: CCARM 3505, 24 h
Staphylococcus aureus [6] = experiment: Antibacterial activity against multidrug-resistant Staphylococcus aureus CCARM 3167 incubated for 24 hrs serial dilution method; conditions: CCARM 3167, 24 h
Staphylococcus aureus [7] = experiment: Antibacterial activity against Staphylococcus aureus RN 4220 incubated for 24 hrs serial dilution method; conditions: RN 4220, 24 h

SMILES | MIC (Staphylococcus aureus [1]) [µg/mL] | MIC (Escherichia coli) [µg/mL] | MIC (Staphylococcus aureus [2]) [µg/mL] | MIC (Staphylococcus aureus [3]) [µg/mL] | MIC (Staphylococcus aureus [4]) [µg/mL] | MIC (Staphylococcus aureus [5]) [µg/mL] | MIC (Staphylococcus aureus [6]) [µg/mL] | MIC (Staphylococcus aureus [7]) [µg/mL]
Cc1nn(-c2ccccc2)c(Oc2ccc(Br)cc2)c1/C=C1\SC(=S)N([C@@H](Cc2ccc(O)cc2)C(=O)O)C1=O | > 64 | > 64 | 8 (≈ 12.6 µM) | 8 (≈ 12.6 µM) | > 64 | 8 (≈ 12.6 µM) | 8 (≈ 12.6 µM) | 8 (≈ 12.6 µM)
Cc1nn(-c2ccccc2)c(Oc2ccccc2Cl)c1/C=C1\SC(=S)N([C@@H](Cc2c[nH]c3ccccc23)C(=O)O)C1=O | > 64 | > 64 | 4 (≈ 6.5 µM) | 4 (≈ 6.5 µM) | > 64 | 4 (≈ 6.5 µM) | 2 (≈ 3.25 µM) | 4 (≈ 6.5 µM)
Cc1ccc(Oc2c(/C=C3\SC(=S)N([C@@H](Cc4c[nH]c5ccccc45)C(=O)O)C3=O)c(C)nn2-c2ccccc2)cc1 | > 64 | > 64 | 2 (≈ 3.36 µM) | 4 (≈ 6.73 µM) | > 64 | 4 (≈ 6.73 µM) | 2 (≈ 3.36 µM) | 4 (≈ 6.73 µM)
COc1ccc(Oc2c(/C=C3\SC(=S)N([C@@H](Cc4c[nH]c5ccccc45)C(=O)O)C3=O)c(C)nn2-c2ccccc2)cc1 | > 64 | > 64 | 4 (≈ 6.55 µM) | 8 (≈ 13.1 µM) | > 64 | 8 (≈ 13.1 µM) | 4 (≈ 6.55 µM) | 8 (≈ 13.1 µM)
COc1ccccc1Oc1c(/C=C2\SC(=S)N([C@@H](Cc3c[nH]c4ccccc34)C(=O)O)C2=O)c(C)nn1-c1ccccc1 | > 64 | > 64 | 8 (≈ 13.1 µM) | 8 (≈ 13.1 µM) | > 64 | 8 (≈ 13.1 µM) | 8 (≈ 13.1 µM) | 16 (≈ 26.2 µM)
Cc1nn(-c2ccccc2)c(Oc2cccc(C(F)(F)F)c2)c1/C=C1\SC(=S)N([C@@H](Cc2c[nH]c3ccccc23)C(=O)O)C1=O | > 64 | > 64 | 4 (≈ 6.17 µM) | 8 (≈ 12.3 µM) | > 64 | 4 (≈ 6.17 µM) | 4 (≈ 6.17 µM) | 4 (≈ 6.17 µM)
Cc1nn(-c2ccccc2)c(Oc2ccc(Cl)cc2)c1/C=C1\SC(=S)N([C@@H](Cc2ccc(O)cc2)C(=O)O)C1=O | > 64 | > 64 | 8 (≈ 13.5 µM) | 8 (≈ 13.5 µM) | > 64 | 16 (≈ 27 µM) | 16 (≈ 27 µM) | 16 (≈ 27 µM)
Cc1nn(-c2ccccc2)c(Oc2ccc3ccccc3c2)c1/C=C1\SC(=S)N([C@@H](Cc2c[nH]c3ccccc23)C(=O)O)C1=O | > 64 | > 64 | 2 (≈ 3.17 µM) | 2 (≈ 3.17 µM) | > 64 | 2 (≈ 3.17 µM) | 2 (≈ 3.17 µM) | 2 (≈ 3.17 µM)
Cc1ccc(Oc2c(/C=C3\SC(=S)N([C@@H](Cc4ccc(O)cc4)C(=O)O)C3=O)c(C)nn2-c2ccccc2)cc1 | > 64 | > 64 | 8 (≈ 14 µM) | 16 (≈ 28 µM) | > 64 | 16 (≈ 28 µM) | 8 (≈ 14 µM) | 16 (≈ 28 µM)
Cc1nn(-c2ccccc2)c(Oc2cccc(Cl)c2)c1/C=C1\SC(=S)N([C@@H](Cc2c[nH]c3ccccc23)C(=O)O)C1=O | > 64 | > 64 | 4 (≈ 6.5 µM) | 4 (≈ 6.5 µM) | > 64 | 4 (≈ 6.5 µM) | 2 (≈ 3.25 µM) | 4 (≈ 6.5 µM)
Cc1nn(-c2ccccc2)c(Oc2ccc3ccccc3c2)c1/C=C1\SC(=S)N([C@@H](Cc2ccc(O)cc2)C(=O)O)C1=O | > 64 | > 64 | 8 (≈ 13.2 µM) | 8 (≈ 13.2 µM) | > 64 | 8 (≈ 13.2 µM) | 8 (≈ 13.2 µM) | 8 (≈ 13.2 µM)
Cc1nn(-c2ccccc2)c(Oc2ccc(Cl)cc2Cl)c1/C=C1\SC(=S)N([C@@H](Cc2ccc(O)cc2)C(=O)O)C1=O | > 64 | > 64 | 8 (≈ 12.8 µM) | 8 (≈ 12.8 µM) | > 64 | 8 (≈ 12.8 µM) | 8 (≈ 12.8 µM) | 8 (≈ 12.8 µM)
Cc1nn(-c2ccccc2)c(Oc2ccc(F)cc2)c1/C=C1\SC(=S)N([C@@H](Cc2ccc(O)cc2)C(=O)O)C1=O | > 64 | > 64 | – | – | > 64 | – | – | > 32
Cc1cccc(Oc2c(/C=C3\SC(=S)N([C@@H](Cc4ccc(O)cc4)C(=O)O)C3=O)c(C)nn2-c2ccccc2)c1 | > 64 | > 64 | 8 (≈ 14 µM) | 16 (≈ 28 µM) | > 64 | 16 (≈ 28 µM) | 16 (≈ 28 µM) | 16 (≈ 28 µM)
Cc1nn(-c2ccccc2)c(Oc2c(Cl)cccc2Cl)c1/C=C1\SC(=S)N([C@@H](Cc2ccc(O)cc2)C(=O)O)C1=O | > 64 | > 64 | 8 (≈ 12.8 µM) | 16 (≈ 25.5 µM) | > 64 | 16 (≈ 25.5 µM) | 8 (≈ 12.8 µM) | 16 (≈ 25.5 µM)
Cc1nn(-c2ccccc2)c(Oc2ccccc2)c1/C=C1\SC(=S)N([C@@H](Cc2ccc(O)cc2)C(=O)O)C1=O | > 64 | > 64 | – | – | > 64 | – | – | > 32

SMILES | MIC (Staphylococcus aureus [1]) [µg/mL] | MIC (Escherichia coli) [µg/mL] | MIC (Staphylococcus aureus [2]) [µg/mL] | MIC (Staphylococcus aureus [3]) [µg/mL] | MIC (Staphylococcus aureus [4]) [µg/mL] | MIC (Staphylococcus aureus [5]) [µg/mL] | MIC (Staphylococcus aureus [6]) [µg/mL] | MIC (Staphylococcus aureus [7]) [µg/mL]
Cc1nn(-c2ccccc2)c(Oc2ccc(Cl)cc2)c1/C=C1\SC(=S)N([C@@H](Cc2c[nH]c3ccccc23)C(=O)O)C1=O | > 64 | > 64 | 2 (≈ 3.25 µM) | 2 (≈ 3.25 µM) | > 64 | 2 (≈ 3.25 µM) | 2 (≈ 3.25 µM) | 2 (≈ 3.25 µM)
Cc1nn(-c2ccccc2)c(Oc2cccc(C(F)(F)F)c2)c1/C=C1\SC(=S)N([C@@H](Cc2ccc(O)cc2)C(=O)O)C1=O | > 64 | > 64 | 16 (≈ 25.6 µM) | 32 (≈ 51.1 µM) | > 64 | 32 (≈ 51.1 µM) | 16 (≈ 25.6 µM) | 16 (≈ 25.6 µM)
Cc1nn(-c2ccccc2)c(Oc2cccc(Cl)c2)c1/C=C1\SC(=S)N([C@@H](Cc2ccc(O)cc2)C(=O)O)C1=O | > 64 | > 64 | 16 (≈ 27 µM) | 16 (≈ 27 µM) | > 64 | 32 (≈ 54 µM) | 8 (≈ 13.5 µM) | 16 (≈ 27 µM)
Cc1ccccc1Oc1c(/C=C2\SC(=S)N([C@@H](Cc3c[nH]c4ccccc34)C(=O)O)C2=O)c(C)nn1-c1ccccc1 | > 64 | > 64 | 4 (≈ 6.73 µM) | 8 (≈ 13.5 µM) | > 64 | 8 (≈ 13.5 µM) | 2 (≈ 3.36 µM) | 8 (≈ 13.5 µM)
COc1ccc(Oc2c(/C=C3\SC(=S)N([C@@H](Cc4ccc(O)cc4)C(=O)O)C3=O)c(C)nn2-c2ccccc2)cc1 | > 64 | > 64 | – | – | > 64 | – | – | > 32
Cc1nn(-c2ccccc2)c(Oc2ccc(F)cc2)c1/C=C1\SC(=S)N([C@@H](Cc2c[nH]c3ccccc23)C(=O)O)C1=O | > 64 | > 64 | 4 (≈ 6.68 µM) | 8 (≈ 13.4 µM) | > 64 | 8 (≈ 13.4 µM) | 4 (≈ 6.68 µM) | 8 (≈ 13.4 µM)
COc1ccccc1Oc1c(/C=C2\SC(=S)N([C@@H](Cc3ccc(O)cc3)C(=O)O)C2=O)c(C)nn1-c1ccccc1 | > 64 | > 64 | – | – | > 64 | – | – | > 32
Cc1ccc(Oc2c(/C=C3\SC(=S)N([C@@H](Cc4ccc(O)cc4)C(=O)O)C3=O)c(C)nn2-c2ccccc2)c(C)c1 | > 64 | > 64 | 8 (≈ 13.7 µM) | 8 (≈ 13.7 µM) | > 64 | 8 (≈ 13.7 µM) | 8 (≈ 13.7 µM) | 8 (≈ 13.7 µM)
Cc1nn(-c2ccccc2)c(Oc2ccccc2)c1/C=C1\SC(=S)N([C@@H](Cc2c[nH]c3ccccc23)C(=O)O)C1=O | > 64 | > 64 | 8 (≈ 13.8 µM) | 8 (≈ 13.8 µM) | > 64 | 8 (≈ 13.8 µM) | 8 (≈ 13.8 µM) | 8 (≈ 13.8 µM)
Cc1ccccc1Oc1c(/C=C2\SC(=S)N([C@@H](Cc3ccc(O)cc3)C(=O)O)C2=O)c(C)nn1-c1ccccc1 | > 64 | > 64 | 16 (≈ 28 µM) | 32 (≈ 56 µM) | > 64 | 32 (≈ 56 µM) | 16 (≈ 28 µM) | 16 (≈ 28 µM)
CCn1cc(C(=O)O)c(=O)c2cc(F)c(N3CCNCC3)cc21 [NORFLOXACIN] | 2 (≈ 6.26 µM) | > 16 | 4 (≈ 12.5 µM) | > 64 | 2 (≈ 6.26 µM) | > 64 | 8 (≈ 25.1 µM) | 2 (≈ 6.26 µM)
Cc1nn(-c2ccccc2)c(Oc2c(Cl)cccc2Cl)c1/C=C1\SC(=S)N([C@@H](Cc2c[nH]c3ccccc23)C(=O)O)C1=O | > 64 | > 64 | 4 (≈ 6.16 µM) | 4 (≈ 6.16 µM) | > 64 | 4 (≈ 6.16 µM) | 4 (≈ 6.16 µM) | 4 (≈ 6.16 µM)
Cc1onc(-c2ccccc2)c1C(=O)N[C@@H]1C(=O)N2[C@@H]1SC(C)(C)[C@@H]2C(=O)O [OXACILLIN] | 1 (≈ 2.49 µM) | > 64 | > 64 | 1 (≈ 2.49 µM) | 1 (≈ 2.49 µM) | 1 (≈ 2.49 µM) | > 64 | 1 (≈ 2.49 µM)
Cc1nn(-c2ccccc2)c(Oc2ccccc2Cl)c1/C=C1\SC(=S)N([C@@H](Cc2ccc(O)cc2)C(=O)O)C1=O | > 64 | > 64 | – | – | > 64 | – | – | > 32
Cc1cccc(Oc2c(/C=C3\SC(=S)N([C@@H](Cc4c[nH]c5ccccc45)C(=O)O)C3=O)c(C)nn2-c2ccccc2)c1 | > 64 | > 64 | 4 (≈ 6.73 µM) | 8 (≈ 13.5 µM) | > 64 | 8 (≈ 13.5 µM) | 4 (≈ 6.73 µM) | 4 (≈ 6.73 µM)
